Measurements taken from patent publication US20260199282A1, “METHODS AND COMPOSITIONS FOR IMPROVING DRIVING PERFORMANCE” (priority 2022, published 2026).
“And” between values parts separate entries of the source, which are not always exact repeats. Equal values may be shown once. Read-outs that look alike come from different tables or passages of the source.

Legend:
[1] = test system: subjects with EDS due to OSA; experiment: Toronto Hospital Alertness Test (THAT), OSA study; format: in vivo, human
Procedure: THAT is analyzed using a mixed effect analysis of covariance (ANCOVA) model. The model includes baseline, treatment (JZP-110 and placebo), treatment period, treatment sequence as fixed effects and subject as a random effect. *p-value is nominal.
The THAT is a 10-item self-report questionnaire designed to measure perceived alertness in the preceding week (Shapiro 2006). The test was administered at baseline and prior to administration of study drug at Visits 4 and 5

[2] = test system: participants with narcolepsy; experiment: Standardized on-road driving test, narcolepsy study; format: in vivo, human; details: for SDLP, observed mean (SD) / SDLP, median / SDLP, median difference (range), solriamfetol - placebo: day 7, 300 mg/day; for SDLP, median / SDLP, median difference (range), solriamfetol - placebo: mITT
Procedure: In this randomized, double-blind, placebo-controlled, crossover study, driving performance during a 1-hour on-road driving test was assessed at 2 hours and 6 hours post-dose following 7 days of treatment with solriamfetol (150 mg/day for 3 days, followed by 300 mg/day for 4 days) or placebo. The primary endpoint was standard deviation of lateral position (SDLP) at 2 hours post-dose.
At the end of each treatment period, a standardized on-road driving test (Verster & Roth, 2011) was conducted at 2 hours and at 6 hours after administration of drug or placebo (FIG. 1A). For each test (~1 hour in duration), participants drove a specially instrumented vehicle over a 100 km (~62 miles) primary highway circuit; they were accompanied by a licensed driving instructor with access to dual controls (brakes, clutch, accelerator). Participants were instructed to maintain both a steady lateral position between the delineated boundaries of the slower (right) traffic lane and a constant speed of 95 km/h (~59 mph). Participants were permitted to deviate from these instructions only to pass a slower vehicle, to respond to slower traffic ahead, or to exit and reenter the highway at the turnaround point (these events were removed for the purpose of data analysis by 2 experienced editors of the driving data). Vehicle speed and lateral distance to the left-lane line were continuously recorded, and the data stored on an onboard computer. The driving test could be stopped by the participant or by the accompanying driving instructor if considered it unsafe to continue.
The primary outcome assessment from the driving tests was standard deviation of lateral position (SDLP) in centimeters—a measure of “weaving” or road-tracking control (Ramaekers, 2017; Verster & Roth, 2011). […] Standard deviation of speed and number of lane drifts (defined as deviations>100 cm from the absolute lateral position within an 8-second window) were also determined from driving test data.
Change in SDLP was analyzed with a repeated mixed-effects analysis of variance (ANOVA).
Maximally selected McNemar symmetry analyses (Laska, Meisner, & Wanderling, 2012) were used to detect asymmetry in the distribution of the change in driving performance at 2 hours and 6 hours post-dose. Single McNemar tests were used to analyze the difference in proportions of participants with improved or impaired driving performance at relevant thresholds. Thresholds of 1.0, 1.5, 2.0, 2.5, 3.0, and 3.5 cm were used.
Additional secondary efficacy measures (standard deviation of speed, number of lane drifts, and THAT scores) were analyzed using a similar ANOVA method as described for SDLP. No multiplicity adjustments were made in the efficacy analyses for multiple endpoints, and all p values are therefore nominal.

[3] = test system: participants with narcolepsy; details: 12 weeks; 75 to 300 mg/day; cited from earlier work
participants with OSA = experiment: Actual task effectiveness from PVT inverse reaction time, OSA; format: in vivo, human; details: OSA n=31
Procedure: (§1) Actual task effectiveness scores were calculated based on each participant's inverse reaction time (IRT [1/RT]) as described below. Sleep intervals derived from participants' actigraphy data—or from sleep diaries, if available, where actigraphy data were missing—were used to calculate modeled healthy control task effectiveness scores using the SAFTE. Participants evidenced good sleep hygiene, with minimal missing data. Task effectiveness was not modeled for participants missing data from the night before PVT testing. A SAFTE model effectiveness score of 100 indicates typical best performance during the day, based on a normal healthy population. SAFTE-FAST effectiveness predictions have been validated against IRT on the PVT [22].
(§2) Actual effectiveness scores were calculated as a percentage of a theoretical “best performance” from participants' average IRT per PVT trial (for all PVT test sessions, actual effectiveness=IRT/3.96×100). Average speed (IRT) on a PVT under optimal conditions—healthy sleepers taking the test at 11:00 in the morning, following an 8-hour sleep opportunity—is approximately 3.96 [40], and is assumed to represent an actual effectiveness score of 100 (a healthy participant's typical best performance). Repeated-measures analysis of variance (ANOVA) was used to estimate the effect of treatment on actual effectiveness over time.

[4] = test system: participants with narcolepsy; experiment: Actual task effectiveness from PVT inverse reaction time, narcolepsy; format: in vivo, human; details: narcolepsy n=20
Procedure: as §1, §2

[5] = cited from earlier work
[6] = test system: subjects with EDS due to OSA; experiment: Safety / adverse events, OSA study; format: in vivo, human
Procedure: The incidence of treatment-emergent adverse events was summarized by treatment. Descriptive statistics were presented for vital sign results. No formal statistical testing was performed for the safety analyses.
The use of vital signs, clinical laboratory tests, standard AE reporting, and the questionnaires that were selected to assess the safety of the study drug were appropriate since they are routinely used to assess the safety profile of drugs in clinical studies and pertinent to known risks of solriamfetol. The C-SSRS is able to determine clinically meaningful points at which a person may be at risk for an impending suicide attempt (Posner 2011).

## NC(=O)OC[C@H](N)Cc1ccccc1 [Solriamfetol, (R)-2-amino-3-phenylpropyl carbamate]
[1]; PP population
  THAT total score, LS mean difference, sensitivity analysis: 2.983
[1]; end of treatment period, mITT
  THAT total score, LS mean (SE): 27.52
  THAT total score, mean (SD): 27.5 (7.60)
  THAT total score, median: 28.5
[1]; end of treatment period, mITT, listed as JZP-110
  THAT total score, LS mean (SE): 27.52 (1.162)
[1]; mITT
  THAT median total score, difference vs placebo: 4.0
  THAT total score, LS mean difference (JZP-110 − Placebo): 3.579
[2]; 2 hours and 6 hours post-dose, thresholds 1.0 to 3.5 cm
  maximum McNemar test, improved vs impaired driving: did not show asymmetry
[2]; 2 hours post-dose
  number of lane drifts, LS mean (SE): 2.3 (0.8)
  number of lane drifts, LS mean difference vs placebo: −0.98
  standard deviation of speed, LS mean (SE): 2.8 (0.2) km/h
  standard deviation of speed, LS mean difference vs placebo: −0.22 km/h
  SDLP, observed mean (SD): 19.0 (3.6) cm and 18.97 cm
  SDLP, median: 19.08 cm
  SDLP, median difference (range), solriamfetol - placebo: −1.9 (−6.7 to 2.6) cm
[2]; 2 hours post-dose, listed as solriamfetol
  SDLP, median difference (range), solriamfetol - placebo: −1.9 cm and −1.90 cm
[2]; 2 hours post-dose, on solriamfetol
  participants with incomplete driving tests: Four
[2]; 6 hours post-dose
  number of lane drifts, LS mean (SE): 3.6 (0.8)
  number of lane drifts, LS mean difference vs placebo: −0.08
  standard deviation of speed, LS mean (SE): 3.1 (0.2) km/h
  standard deviation of speed, LS mean difference vs placebo: −0.11 km/h
  SDLP, observed mean (SD): 19.8 (3.5) cm
  SDLP, median: 19.59 cm
  SDLP, median difference (range), solriamfetol - placebo: −1.1 (−12.1 to 6.0) cm
[2]; 6 hours post-dose, listed as solriamfetol
  SDLP, median difference (range), solriamfetol - placebo: −1.1 cm
[2]; 6 hours post-dose, on solriamfetol
  participants with incomplete driving tests: Three
[2]; on solriamfetol, 7/44 tests
  driving tests stopped: 16%
[2]; while on solriamfetol, either time point
  participants with ≥1 incomplete test: 5
[3]
  Epworth Sleepiness Scale, treatment difference from placebo (least squares mean): −2.2 to −4.7 points
Participants with OSA; 2 hours post-dose
  Actual task effectiveness, LS mean (SE): 91.88 (1.12)
  Actual task effectiveness, LS mean difference: −2.35
Participants with OSA; 6 hours post-dose
  Actual task effectiveness, LS mean (SE): 93.72 (1.12)
  Actual task effectiveness, LS mean difference: −1.35
Participants with OSA; pre-dose
  Actual task effectiveness, LS mean (SE): 89.19 (1.12)
  Actual task effectiveness, LS mean difference: −4.45
[4]; 2 hours post-dose
  Actual task effectiveness, LS mean (SE): 96.07 (1.65)
  Actual task effectiveness, LS mean difference: 10.41
[4]; 6 hours post-dose
  Actual task effectiveness, LS mean (SE): 93.89 (1.65)
  Actual task effectiveness, LS mean difference: 7.60
[4]; pre-dose
  Actual task effectiveness, LS mean (SE): 86.06 (1.65)
  Actual task effectiveness, LS mean difference: −6.16
[5]; fasting conditions
  mean half-life: 5.9 h
  median time to peak plasma concentration: 2 h
[5]; fed conditions
  mean half-life: 6.1 h
  median time to peak plasma concentration: 3 h
[6]; after receiving solriamfetol
  subjects with TEAE considered related to study treatment: 35.3%
[6]; in vivo
  serious or fatal TEAEs: no serious nor fatal TEAEs
[6]; received solriamfetol
  subjects with TEAE related or suspected related to study drug, n (%): 12 (35.3%)
[6]; receiving solriamfetol
  subjects experiencing TEAEs, n (%): 17 (50.0%)
